Reference: US8242152B2, “Use of 4-[(4-thiazolyl)phenoxy]alkoxy-benzamidine derivatives for the prophylaxis and treatment of osteoporosis” (Dong Wha Pharmaceutical Co., Ltd., priority 2001, dated 2012)

Tests used:
LTB4 receptor = LTB4 receptor (Homo sapiens, UniProt Q15722); test: LTB4 receptor binding assay on human neutrophils ([3H]-LTB4); set-up: endogenous in cells; host or cells: human neutrophils (PMN) purified from fresh blood; details: 100 nM; versus DW1350
Protocol: Neutrophils (PMN) were purified from freshly drawn human blood by standard techniques or dextran T-500 sedimentation and centrifugation on Ficoll/Paquc (pharmacia) followed by hypotonic lysis of crythrocyte. The purified PMN were resuspended to a final concentration of 3×10^7 cells/ml in HESS (Hank's balanced salt solution, Gibco).
The assay was performed following the method described elsewhere (Brown. A. R.; Grccnham, N. C.; Burroughes, J. H.: Bradely, D. C. C.; Friend. R. H.; Burn, P. L.; Kraft. A.: Holmes, A. B.; Chem. Phys, Lett. 1992, 200, 1246). LTB4 receptor binding assay was performed in 12×75 mm polypropylene tubes containing 0.5 nM of [^3H]-LTB4 (200 Ci/mmol), competitive compound, and cells suspended in HBSS (3×10^6 cells) (final volume: 200 ul). The tubes were incubated on ice for 45 minutes. Free and PMN bound [^3H]-LTB4 were separated by filtration through Whatman GF/C filters. The filters were then washed three times with 5 ml of ice cold Tris buffer (pH 7.4). […] The radioactivity was measured by liquid scintillation spectrometry. The specific binding was determined as the count difference total binding and binding in the presence of 1000-fold excess of unlabeled LTB4 (Scontrol). The LTB4 binding activity was calculated from the percent inhibition of specific [^3H]-LTB4 binding at various concentrations (Ssample). […]

MC3T3-E1 cells = test: Alkaline phosphatase (ALP) activity to measure osteoblast activity (Example 4); format: cell-based; details: 10^−8M; two weeks culture
Protocol: This experiment is designed to evaluate the differentiation and activity of osteoblast via ALP activity having a close relationship with osteoblastic bone formation (Y. Wada et al., Bone, 22,479-485, 1998).
MC3T3-E1 cells (3,000 cells/well) derived from osteoblast were placed on a 96 well plate and after 24-hour culture the media were changed with fresh medium containing various differentiation factors such as ascorbic acid (100 ug/ml) and β-glycerophosphatic acid (5 mM). The medium was also treated with test substances and the medium, containing differentiation factors and the specimen, was changed with a fresh medium every 3 days.
The culture was terminated after two weeks to measure ALP activity. With the removal of the supernatant, 0.5% Triton X-100 were added for the lysis of cells. 100 ul of p-nitrophenylphosphate (1.21 mM) was added to 50 ul of above mixture. The mixture was incubated at 37° C. for 30 mins and with the addition of 0.2N sodium hydroxide (50 ul), the reaction was terminated. The standard curve was indicated at the absorbance of 405 nm using p-nitrophenol as a standard material and then the absorbance of test substances, so reacted, was measured to observe the production amount of p-nitrophenol.
As shown in the following table 4, the units of ALP activity were determined as the amount of p-nitrophenol (nM) produced per time (per min or hour)/1 ug protein after measuring the amounts of protein contained in the reaction mixture of each test substance.

[1] = tested on: LTB4-induced osteoclast formation; test: LTB4-induced osteoclast formation in rabbit osteoclast cultures, co-treatment and pre-treatment (Example 6); format: cell-based; details: dentin slices
Protocol: Rabbit osteoclasts were isolated as described by Victoria Tai's report (Doctoral Dissertation, 1997, Graduate Department of Pharmacology, University of Toronto) and Rraser P. Coxon et al. (Methods in Molecular Medicine, vol 80). Neonatal rabbits (New Zealand White) were sacrificed by ether-inhaling method under a hood. The removed long bones were dissected free of attached soft tissues and placed into ice-cold PBS. The long bones were cut longitudinally and mechanically curetted in 10 ml medium 199 with antibiotics (10 ug/ml penicillin G and 50 ug/ml gentamycin) in a glass Petri dish. Each bone was curetted with a scalpel blade and was finely minced. The fragments were then vigorously agitated by pipetting up and down using a pasteur pipette and vortex-mixed for 30 seconds. The fragments were allowed to settle and the cell suspension was then transferred to a 50 ml tube and the previous step repeated three times to a total volume of 40 ml. The bone fragments were allowed to settle (>1 min). The cell suspension was then transferred to a new 50 ml tube, passed through a 40 um cell strainer and centrifuged at 200 g for 8 minutes. The supernatant was removed and the pellet was immediately resuspended in α-MEM with 2% FBS (bicarbonate buffered medium).
40 uL droplets of osteoclast-containing suspensions were plated onto 60 mm tissue culture plastic dishes or on dentine slices in 96-well microtiter plates in 2% medium. The cells were allowed ninety minutes for attachment before the addition of 2 mL α-MEM with 2% FBS. After 24 hr culture, cells were washed to remove non-adherent cells and replaced with fresh medium as describes below.
After 24 hr in culture, the medium was removed and replaced with fresh medium containing both LTB4 receptor antagonist (1000 nM) and LTB4 (100 nM) or both DW1350 (1000 nM) and LTB4 (100 nM). The cultures were continued for an additional 48 hrs.
After 6 hrs in culture, the medium was removed and cells were pretreated with LTB4 receptor antagonists such as LY292728 (Journal of Medical Chemistry, 1995, vol. 38, No. 10, p 4411-4432), SB209247 (Journal of Medical Chemistry, 1996, vol. 39, No. 19, p 3837-3841), LY293111(Journal of Medical Chemistry, 1995, vol. 38, No. 10, p 4411-4432) and LY223982 (Journal of Medical Chemistry, 1993, vol. 36, p 3333-3340) or DW1350-containing medium and culture continued for 18 hrs. The medium was replaced with medium containing both LTB4 receptor antagonist and LTB4 or DW1350 and LTB4. The cultures were continued for an additional 48 hrs.
All cells were cultured at 37° C. in a humidified atmosphere of 95% air and 5% CO2 in bicarbonate buffered medium at pH 7.4.
Differentiated osteoclasts are multinucleated cells and have specific enzyme activity, such as ‘tartrate-resistant acid phosphatase (TRAP)’. Therefore, Osteoclast formation was determined by counting the number of TRAP-positive multinucleated cells (TRAP(+) MNCs).
After culture, the cells were fixed with 10% neutral buffered formalin for 30 min at 4° C., washed twice in distilled water and stained for TRAP activity by incubating with substrate. The number of TRAP(+)MNC with more than 2 nuclei was counted under photomicroscope.
Results were expressed as mean number of TRAP(+)MNC±SD of All experiments were done at least twice. Statistical analysis was performed for each experiment by student t-test.

Sequence of LTB4 receptor (Q15722 whole entry): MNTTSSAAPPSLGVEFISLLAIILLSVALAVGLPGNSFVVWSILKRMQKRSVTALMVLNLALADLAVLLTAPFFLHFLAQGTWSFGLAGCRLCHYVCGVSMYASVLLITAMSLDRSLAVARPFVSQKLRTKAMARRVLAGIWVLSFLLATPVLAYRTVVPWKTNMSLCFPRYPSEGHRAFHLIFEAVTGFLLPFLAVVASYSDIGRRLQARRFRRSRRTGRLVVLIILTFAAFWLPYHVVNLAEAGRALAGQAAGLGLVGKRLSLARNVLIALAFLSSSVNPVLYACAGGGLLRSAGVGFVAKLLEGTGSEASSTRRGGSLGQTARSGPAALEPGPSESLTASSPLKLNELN

Molecule | times the inhibition of LTB4 receptor binding of DW1350 (LTB4 receptor) | ALP activity (units) (MC3T3-E1 cells) | further results
Cc1nc(-c2ccc(OCCCCOc3ccc(C(=N)N)cc3)cc2)c(C(C)C)s1 [DW1351, 4-{4-[4-(5-isopropyl-2-methyl-1,3-thiazol-4-yl)phenoxy]butoxy}-benzamidine] | more than eight times |  | 
Cc1nc(-c2ccc(OCCCCCOc3ccc(C(=N)NO)cc3)cc2)c(C(C)C)s1 [DW1350, N-hydroxy-4-{5-[4-(5-isopropyl-2-methyl-1,3-thiazol-4-yl)phenoxy]pentoxy}-benzamidine] |  | 19.8 | LTB4-stimulated osteoclast formation ([1]; pre-treatment 18 hrs, then 1000 nM compound + 100 nM LTB4 for 48 hrs): significant inhibition on LTB4-stimulated osteoclast formation; LTB4-stimulated osteoclast formation ([1]; simultaneous treatment: 1000 nM compound + 100 nM LTB4, 48 hrs): significant inhibition on LTB4-stimulated osteoclast formation
4-[5-[4-(aminoiminomethyl)phenoxy]pentoxy]-3-methoxy-N,N-bis(1-methylethyl)benzamide maleic acid [CGS-25019C] |  | 15.0 | 
Cc1nc(-c2ccc(OCCCCCOc3ccc(C(=N)N)cc3)cc2)c(C(C)C)s1 [DW1352, 4-{5-[4-(5-isopropyl-2-methyl-1,3-thiazol-4-yl)phenoxy]pentoxy}-benzamidine] |  | 17.1 | 
COc1cc(C(=O)N(C(C)C)C(C)C)ccc1OCCCCOc1ccc2c(N)noc2c1 [HS1141, N,N-diisopropyl-4-[4-(3-aminobenzo[d]isooxazole-6-yloxy)butoxy]-3-methoxybenzamide] |  | 15.2 | 
Cc1nc(-c2ccc(OCCCCOc3ccc(C(=N)NO)cc3)cc2)c(C(C)C)s1 [DW1349, N— hydroxy-4-{4-[4-(5-isopropyl-2-methyl-1,3-thiazol-4-yl)phenoxy]butoxy}-benzamidine] | more than three times |  | 
